Counter-ions that a name gives are not always drawn.
Tests used:
[1] = Color drift of paint dosed with copper-containing material and copper-coordinating additive (CIE a* before/after peroxide); format: physicochemical; conditions: for a* drift (total drift in color, gap between paint color before and after peroxide testing) / a* endpoint: FIG. 1, Control B paint, Cu:phosphate dibasic 1:0.3 and 1:0.6, other additives 1:0.5 and 1:1; for a* endpoint: after peroxide; for drift in color: FIG. 3, additive neutralized to pH 7 before copper-containing material, 1:1.5 and 1:3 molar ratios; for color drift: 1:1 and 1:3 molar ratios; for color drift / color shift to endpoint / color drift: additive neutralized to pH 7; for color shift to endpoint / color drift: FIG. 10
[2] = test system: bacteria; assay: Antimicrobial efficacy (logarithmic reduction) of paint samples with copper-containing material and copper-coordinating additive; format: cell-based; conditions: FIG. 12; 50 g of 1:3 molar ratio mixture per gallon of control paint
Source text: As used herein, the term “logarithmic reduction” means the negative value of log (Ca/C0), where Ca refers to the colony form unit (“CFU”) number of the antimicrobial surface and C0 refers to the CFU of the control surface that is not an antimicrobial surface. As an example, a 3 logarithmic reduction equals about 99.9% of the microbes killed and a logarithmic reduction of 5 equals about 99.999% of microbes killed. The logarithmic reduction value may be measured according to the ASTM D2574-16 (2016) “Standard Test Method for Resistance of Emulsion Paints in the Container to Attack by Microorganisms.”
The effectiveness of a composition of the present disclosure as a biocidal composition may be measured as a function of the composition's logarithmic reduction. The composition's logarithmic reduction value may be relevant to its ability to kill a wide variety of biological organisms to which the composition is exposed, but may also allow the copper-containing material to act as a preservative for the composition during storage (e.g., in a container such as, but not limited to a tank, a can, a bucket, a drum, a bottle, or a tube). […]

[3] = FIG. 5, Control N paint, 50 g/gallon

Row | Compound | a* drift (total drift in color, gap between paint color before and after peroxide testing) ([1]; 50 g/gallon) | a* endpoint ([1]; 50 g/gallon) | color shift to endpoint / color drift ([1]; 1:3 molar ratio, 50 g/gallon) | other results
1 | CCCCC(CC)COP(=O)(O)O (centres unmarked) [2EHP, 2-ethylhexylphosphate] | −0.25 to −1 | −0.5 to −1 | – | drift in color ([1]; 50 g/gallon): reduced significantly; color drift [1, 3]: did not minimize drift; color drift, 1:3 molar ratio relative to 1:1 molar ratio [1, 3]: some reduction in drift
2 | CCON [ethoxyamine hydrochloride] | – | – | accelerated color shift to endpoint, minimizing color drift | impact on antimicrobial efficacy [2]: minimal impact on antimicrobial efficacy
3 | Cl.NO [hydroxylamine hydrochloride] | ~0 | did not change the endpoint a* | – | drift in color ([1]; 50 g/gallon): reduced significantly; color drift [1, 3]: minimized color drift by accelerating to endpoint quickly; effect on a* / color endpoint (summary of data) ([1]; control paint samples, summary): accelerated color endpoints and reduced color shifts by starting with more negative a* values
4 | COP(=O)(O)O [methyl phosphate] | – | – | accelerated color shift to endpoint, minimizing color drift | impact on antimicrobial efficacy [2]: minimal impact on antimicrobial efficacy
5 | O=P(O)(O)Oc1ccccc1 [phenyl phosphate] | – | – | – | color shift to endpoint ([1]; FIG. 13, 1:3 molar ratio, 50 g/gallon): all copper-coordinating additives except for phenyl phosphate accelerated color shift to endpoint
6 | COP(=O)(OC)OC [trimethyl phosphate] | – | – | accelerated color shift to endpoint, minimizing color drift | –
7 | NC(N)=O [urea] | ~−1 | did not change the endpoint a* | – | –
8 | phosphate dibasic | −1.75 | ~−1.5 | – | –
